Test results as given in US9295670B2, “Methods for treating obstructive sleep apnea” (priority 2011, dated 2016).
Entries after “also recorded” stand apart in the source; their conditions may differ. Marks after values point to notes of the source that are not given here.

Tests used:
[1] = in vivo; cited from earlier work
OSA patient = experiment: Randomized, double-blind, dose escalating study in one OSA patient (Example 3; PSG); type: in vivo, human; conditions: FIG. 9
Method: A randomized, double-blind, dose escalating study was carried out in one patient to determine optimum PYD dose range for treating OSA. The patient was administered to with 30, 60, 90 mg PYD bromide or a placebo before sleep, and was monitored by PSG throughout the night. AHI, AI, and total apnea/hypopnea time were lower in the nights administered with 30 or 60 mg PYD bromide compared with the night with 90 mg PYD bromide (FIG. 9). The number of low O2 saturation events was lower with 60 mg PYD bromide compared with that of 90 mg PYD bromide. The results obtained from the clinical study described in Example 2 were reexamined to compare the therapeutic responses in the windows of 2-5 hours and 5-7 hours after sleep. […] Since serum PYD concentrations are expected to be lower within 5-7 hours comparing with those within 2-5 hours, the optimum dose range may be less than 90 mg of PYD bromide in a single dose.

[2] = tested on: patients with moderate to severe OSA; experiment: Randomized, double-blind, placebo-controlled, crossover study with PYD in 12 patients with moderate to severe OSA (Example 1; PSG or PM); type: in vivo, human
Method: (§1) A randomized, double-blind, placebo-controlled, crossover study with PYD was undertaken in 12 patients with moderate to severe OSA. PYD was prepared by grinding pyridostigmine bromide pills manufactured by Sunve Pharmaceutical Co., LTD., Shanghai, China and recapsulated into hard shell capsules. PYD bromide at 30 mg, 60 mg, 120 mg, or placebo was orally administered to patients before sleep each night for a total of four continuous nights. Lights went out within 5 min after the administration. Blood was drawn at 0, 0.5, 1, 1.5, 2, 2.5, 3, 4 and 7 hours after the administration, and serum drug concentrations were determined by a LC-MS method after proper pre-treatment of the blood samples. Patients were monitored by either a PSG or a PM throughout the nights.

diagnosed OSA patients = experiment: Double-blind, randomized, cross-over, placebo-controlled study of efficacy and safety of PYD in 6 OSA patients (Example 2; PSG, questionnaires); type: in vivo, human; conditions: for Apnea/Hypopnea Index (AHI): 90 mg PYD bromide oral, mean of 6 patients; for Apnea/Hypopnea Index (AHI) / Apnea index (AI) / Hypopnea Index (HI): events per hour; for Apnea/Hypopnea Index (AHI) Reduction (%) / Hypopnea Index (HI) Reduction (%) / Apnea index (AI) Reduction (%) / Apnea/Hypopnea time Reduction (%) / Low Sat O2 Reduction (%) / Snore score Reduction (%): 90 mg vs placebo; for Apnea/Hypopnea time (%): percentage of total sleep time
Method: A double-blind, randomized, cross-over, placebo-controlled study was conducted to evaluate the efficacy and safety of PYD in 6 diagnosed OSA patients. The study consists of a one-day acclimatization period followed immediately by a 2-day double-blind treatment period when patients received either 90 mg PYD bromide in hard shell capsules or a matching placebo before sleep with a light snack. All patients were required to maintain in a supine position throughout of the night, as OSA is most severe when patients is on their back. In such a way, the results are expected to be more conservative in judging therapeutic effects of the drug. Lights were turned off within 5 min after the administration of the drug. The patients were monitored by a PSG. Apnea, hypopnea, snoring, blood O2 saturation were monitored, recorded, and scored. Sleep questionnaires were taken everyday after sleep to evaluate the impact on the sleep satisfaction and at evening to evaluate the quality of life during the daytime. Safety of the drug was also monitored and evaluated.

[3] = Serum drug concentrations after oral PYD bromide in OSA patients (Example 1, LC-MS); type: in vivo, human
Method: as §1

[4] = one patient, three treatment nights (30, 60, 120 mg), 2-7 hours after lights off
[5] = 0-2 hr, P value >0.05, listed as Drug
[6] = 0-2 hr, P value >0.05, listed as PYD bromide
[7] = 2-7 hr, P value >0.05, listed as Drug
[8] = 2-7 hr, P value >0.05, listed as PYD bromide

CN(C)C(=O)Oc1ccc[n+](C)c1 [PYD, pyridostigmine]
elimination half-life [1]: approximately 1.78 hours
number of low O2 saturation events (OSA patient; 60 mg compared with 90 mg PYD bromide): lower
AHI, AI, and total apnea/hypopnea time (OSA patient; nights with 30 or 60 mg compared with the night with 90 mg PYD bromide): lower
serious adverse reactions ([2]; 30, 60, 120 mg oral, during the study): No serious adverse reaction was reported
serum drug concentrations at which patients particularly responded positively ([2]; 'particularly between'): 3 to 60 ng/mL
AHI and events of low O2 saturation ([2]; one patient, 0-2 hours after lights off): largely not changed
AHI and low O2 saturation, dose response ([2]; one patient, 30-60 mg compared with 120 mg PYD bromide, FIG. 2): lower AHI and less low O2 saturation
reduction of AHI compared with placebo [2, 4]: 11-23%
reduction of events of low blood O2 saturation compared with placebo [2, 4]: 10-18%
adverse reactions at the highest dose ([2]; patients treated with the highest dose): stomach upset and mild muscle cramp
serum drug concentrations at which patients responded positively ([2]; positive responses: reduction of AHI, AI, apnea/hypopnea time, snoring, increase in minimum oxygen saturation): 2 to 150 ng/mL
Apnea/Hypopnea Index (AHI) (diagnosed OSA patients; 0-2 hr after sleep): 29.6
Apnea/Hypopnea Index (AHI) (diagnosed OSA patients; 2-7 hr after sleep): 20.4
Apnea/Hypopnea Index (AHI) Reduction (%) (diagnosed OSA patients; 0-2 hr after sleep, P value >0.05, listed as Drug): 13.1*** %
Apnea/Hypopnea Index (AHI) Reduction (%) (diagnosed OSA patients; 0-2 hr after sleep, P value >0.05, listed as PYD bromide): No statistically significant reduction
Hypopnea Index (HI) Reduction (%) (diagnosed OSA patients; 0-2 hr, P value >0.05): −17.7*** %
Apnea index (AI) Reduction (%) (diagnosed OSA patients; [5]): 26.7*** %
Apnea/Hypopnea time Reduction (%) (diagnosed OSA patients; [5]): 21.5*** %
Low Sat O2 Reduction (%) (diagnosed OSA patients; [5]): 6.6*** %
Snore score Reduction (%) (diagnosed OSA patients; [5]): 3.3*** %
Apnea index (AI) Reduction (%) (diagnosed OSA patients; [6]): No statistically significant reduction
Apnea/Hypopnea time Reduction (%) (diagnosed OSA patients; [6]): No statistically significant reduction
Low Sat O2 Reduction (%) (diagnosed OSA patients; [6]): No statistically significant reduction
Snore score Reduction (%) (diagnosed OSA patients; [6]): No statistically significant reduction
Apnea/Hypopnea Index (AHI) Reduction (%) (diagnosed OSA patients; 2-7 hr after sleep, P value <0.01 (0.0003), listed as Drug): 28.0* %
Apnea/Hypopnea Index (AHI) Reduction (%) (diagnosed OSA patients; 2-7 hr after sleep, P value <0.01 (0.0003), listed as PYD bromide): 28.0%
Apnea/Hypopnea time Reduction (%) (diagnosed OSA patients; 2-7 hr, 0.01 < P value < 0.05 (0.0133), listed as Drug): 36.4** %
Apnea/Hypopnea time Reduction (%) (diagnosed OSA patients; 2-7 hr, 0.01 < P value < 0.05 (0.0133), listed as PYD bromide): 36.4%
Apnea index (AI) Reduction (%) (diagnosed OSA patients; 2-7 hr, 0.01 < P value < 0.05 (0.0314), listed as Drug): 37.3** %
Apnea index (AI) Reduction (%) (diagnosed OSA patients; 2-7 hr, 0.01 < P value < 0.05 (0.0314), listed as PYD bromide): 37.3%
Snore score Reduction (%) (diagnosed OSA patients; 2-7 hr, P value <0.01 (0.0041), listed as Drug): 18.8* %
Snore score Reduction (%) (diagnosed OSA patients; 2-7 hr, P value <0.01 (0.0041), listed as PYD bromide): 18.8%
Hypopnea Index (HI) Reduction (%) (diagnosed OSA patients; [7]): 10.3*** %
Low Sat O2 Reduction (%) (diagnosed OSA patients; [7]): 12.5*** %
Hypopnea Index (HI) Reduction (%) (diagnosed OSA patients; [8]): 10.3%
Low Sat O2 Reduction (%) (diagnosed OSA patients; [8]): 12.5%
Low Sat O2 (events/hr) (diagnosed OSA patients; 90 mg, 0-2 hr after sleep): 35.1 events/hr
Snore score (events/hr) (diagnosed OSA patients; 90 mg, 0-2 hr after sleep): 528 events/hr
Apnea index (AI) (diagnosed OSA patients; 90 mg, 0-2 hr after sleep): 16.9
Hypopnea Index (HI) (diagnosed OSA patients; 90 mg, 0-2 hr after sleep): 12.0
Apnea/Hypopnea time (%) (diagnosed OSA patients; 90 mg, 0-2 hr): 18.7%
Low Sat O2 (events/hr) (diagnosed OSA patients; 90 mg, 2-7 hr after sleep): 24.9 events/hr
Snore score (events/hr) (diagnosed OSA patients; 90 mg, 2-7 hr after sleep): 485 events/hr
Apnea index (AI) (diagnosed OSA patients; 90 mg, 2-7 hr after sleep): 11.7
Hypopnea Index (HI) (diagnosed OSA patients; 90 mg, 2-7 hr after sleep): 8.7
Apnea/Hypopnea time (%) (diagnosed OSA patients; 90 mg, 2-7 hr): 14.5%
PSG scores (AHI, AI, total apnea/hypopnea time, low O2 saturation events) (diagnosed OSA patients; 90 mg, 5-7 hours compared with 2-5 hours after sleep, FIG. 10): statistically significantly lower
daytime quality of life reported by patients (diagnosed OSA patients; daytime following the drug treatment night): more energy, be more concentrated and be less sleepy
tolerability / serious adverse reactions (diagnosed OSA patients; single dose 90 mg PYD bromide): well tolerated; also recorded: no serious adverse reaction was reported
adverse reactions found (diagnosed OSA patients; single dose 90 mg, one patient): minor stomach upset
longer total sleep time in the treatment night (average) (diagnosed OSA patients; three patients, treatment night vs placebo night, FIG. 8): 33 min
noise of snoring (diagnosed OSA patients; treatment night compared with placebo night): quieter
sleep quality, patients' self evaluation questionnaire (diagnosed OSA patients; treatment night vs placebo night, FIG. 8): better sleep, more clear-headed, more energetic, and more satisfied sleep
serum drug concentrations in one patient ([3]; one patient monitored by PSG all four nights, 30, 60, 120 mg oral, FIG. 2): 3 to 45 ng/mL
time of peak serum drug concentration ([3]; oral PYD bromide 30, 60 or 120 mg before sleep, 12 OSA patients, FIG. 1): 3 to 4 h
